For 3 molecules, IC50 results are on record in US20060247439A1, “Mchir antagonists” (AstraZeneca AB, priority 2002, published 2006).

Each structure is given as a SMILES string.

The experiment addresses T1, human Melanin concentrating hormone receptor 1 (MCH1r) (Homo sapiens, UniProt Q99705).
T1 construct: expressed in transfected cells; membranes)
In words: MCH1 Receptor Radioligand Binding. To be noted: membranes from HEK293 cells stably expressing human MCH1r; radioligand 125I-MCH. As for the experimental part:
MCH1 Receptor Radioligand Binding.
Assays were performed on membranes prepared from HEK293 cells stably expressing the human Melanin concentrating hormone receptor 1 (MCH1r) (Lembo et al. Nature Cell Biol 1 267-271). Assays were performed in a 96-well plate format in a final reaction volume of 200 μl per well. Each well contained 6,1 μg of membrane proteins diluted in binding buffer (50 mM Tris, 3 mM MgCl2, 0.05% bovine serum albumin (BSA) and the radioligand ^125I-MCH (IM344 Amersham) was added to give 10 000 cpm (counts per Minute) per well Each well contained 2 μl of the appropriate concentration of competitive antagonist prepared in DMSO and left to stand at room temperature for 60 minutes. Non-specific binding was determined as that remaining following incubation with […] MCH (Melanin concentrating hormone, H-1482 Bachem). The reaction was terminated by transfer of the reaction to GF/A filters using a Micro96 Harvester (Skatron Instruments, Norway). Filters were washed with assay buffer; Radioligand retained on the filters was quantified using a1450 Microbeta TRILUX (Wallac, Finland).
Non-specific binding was subtracted from all values determined. Maximum binding was that determined in the absence of any competitor following subtraction of the value determined for non-specific binding. Binding of compounds at various concentrations was plotted according to the equation y=A+(B−A)/1+((C/x)ˆD))) and IC50 estimated where […]
A is the bottom plateau of the curve i.e. the final minimum y value
B is the top of the plateau of the curve i.e. the final maximum y value
C is the x value at the middle of the curve. This represents the log EC50 value when A+B=100 […]
x is the original known x values. y is the original known y values.

T1 sequence (Q99705 whole entry): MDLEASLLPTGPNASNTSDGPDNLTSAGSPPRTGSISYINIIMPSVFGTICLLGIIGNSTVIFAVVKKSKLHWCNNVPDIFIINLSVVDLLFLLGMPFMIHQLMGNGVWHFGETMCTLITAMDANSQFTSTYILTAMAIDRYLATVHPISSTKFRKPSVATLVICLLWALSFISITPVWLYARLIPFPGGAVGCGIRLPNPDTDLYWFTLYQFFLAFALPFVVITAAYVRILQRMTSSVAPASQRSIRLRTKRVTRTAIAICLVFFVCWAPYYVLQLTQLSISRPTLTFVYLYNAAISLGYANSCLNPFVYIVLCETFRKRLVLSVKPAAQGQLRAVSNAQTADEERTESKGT

On to `Clc1ccc(CNC2CCC(Nc3ccc4ccccc4n3)CC2)cc1Cl` (mixture of isomers) [Example 29, N-[(3,4-Dichlorophenyl)methyl]-N′-(2-quinolinyl)-1,4-cyclohexanediamine], for which the IC50 – broadly, the midpoint of a concentration-inhibition curve – turned out to be 400 nM. This counts as sub-micromolar.
In turn, `COc1ccc2nc(NC3CCCC(NCc4cc5ccccc5o4)C3)cc(C)c2c1` (mixture of isomers) [Example 53, N-(1-benzofuran-2-ylmethyl)-N′-(6-methoxy-4-methylquinolin-2-yl)cyclohexane-1,3-diamine] gave an IC50 of 560 nM.
For `COc1ccc2nc(NCCCNCc3ccsc3)cc(C)c2c1` [Example 2, N-(6-Methoxy-4-methyl-2-quinolinyl)-N′-(3-thienylmethyl)-1,3-propanediamine], the IC50 was found to be 10 nM.
